One series relates to MCF7 D538G. The experiment in a line: Inhibition of proliferation of MCF7 cell expressing ERα D538G mutant. It is filed as cell-based. As to conditions: Homo sapiens, 144 hours. The method, boiled down: (§1)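 MCF7 cells stably expressing lentiviral ERα Y537S or D538G mutants, seeded 3,000 cells/well, then exposed in 2% FBS MEM to nine 4-fold dilutions from 100 nM for 144 h at 37° C. Viability read by CellTiter-Glo luminescence; IC50 fitted from concentration-response.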

Series [1] addresses estrogen receptor ERα Y537S mutant-type (Homo sapiens (Human), UniProt P03372, Y537S). The experiment in a line: Covalent modification of ERα Y537S mutant-type LBD by high-resolution mass spectrometry. Type of series: binding. As to conditions: after 24 hours; 2 μM protein, 10 μM compound, 4° C. Here is the method: (§2) The ligand binding domain (LBD, aa296-554) of estrogen receptor ERα wild-type and ERα Y537S mutant-type was expressed in E. coli and purified. 2 μM ERα wild-type or ERα Y537S mutant-type protein and 10 μM compound were added to a buffer solution containing 50 mM Tris-HCl, pH7.5, 150 mM NaCl, 1 mM TCEP and 5% glycerol and mixed well. The solution was incubated at 4° C. for 24 hours, followed by high-resolution mass spectrometry (Agilent Technologies, Agilent Q-tof 6530) assay. Alternatively, 1 μM ERα wild-type or ERα Y537S mutant-type protein and 3 μM compound were added to a buffer solution containing 50 mM Tris-HCl, pH7.5, 150 mM NaCl, 1 mM TCEP and 5% glycerol and mixed well. The solution was incubated at 37° C. for 15 minutes, followed by high-resolution mass spectrometry assay. In the mass spectrometry assay results, the peak whose molecular weight is the sum of the molecular weight of the protein and compound is the product of covalent modification. The percentage of covalent modification is obtained by calculating the ratio of […] to total protein.

A further series deals with MCF7 ERαY537S. Description: Inhibition of proliferation of MCF7 cell expressing ERα Y537S mutant. Type of series: cell-based. The note with it: Homo sapiens, 144 hours. The method, boiled down:
as §1

The next series has as its system MCF7 cell. The experiment in a line: Inhibition of proliferation of MCF7 cell (CellTiter-Glo, 144 hours). It is filed as cell-based. The note with it: Homo sapiens. The method in brief:
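Seeded overnight, MCF7 cells were treated in MEM with 2% FBS with nine 4-fold dilutions from 100 nM (0.5% DMSO blank). Incubation 144 h at 37° C, 5% CO2. CellTiter-Glo luminescence read; IC50 from signal versus log concentration.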

Series [2] concerns the target estrogen receptor ERα wild-type (Homo sapiens (Human), UniProt P03372). Description: Covalent modification of ERα wild-type LBD by high-resolution mass spectrometry. It is filed as binding. The note with it: after 24 hours; 2 μM protein, 10 μM compound, 4° C. Here is the method: as §2
Series [3] relates to estrogen receptor reporter gene. The experiment in a line: Inhibition of estrogen receptor reporter gene activity (ERE-luc luciferase) in MCF7/ERE-luc cells. Type of series: cell-based. As to conditions: Homo sapiens, 0.1 nM β-estradiol, 20 hours, read-out: IC50 of inhibitory activity on the activity of the estrogen receptor reporter gene. The method in brief:
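MCF7 cells stably carrying ERE-driven luciferase, in charcoal-stripped serum medium, were stimulated with 0.1 nM β-estradiol plus compound (nine 10-fold dilutions from 10 μM) for 20 h at 37° C. ONE-Glo luminescence was read, and IC50 was fitted from signal versus log concentration.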
On the technique in general: In a reporter assay the amount or activity of a reporter protein is the signal.

The next series has as its target Nav1.5 ion channel (Homo sapiens (Human), UniProt Q14524). The experiment in a line: Manual patch clamp inhibition of Nav1.5 current in HEK293 cell. Type of series: cell-based. As to conditions: whole-cell patch clamp, read-out: IC50 on inhibiting the Nav1.5 channel activity. Here is the method:
The purpose of the experiment is to investigate the effect of the compounds on Nav1.5 ion channel in an […] experiment. Nav1.5 ion channel is stably expressed on HEK293 cell. After the Nav1.5 current becomes stable, the Nav1.5 currents before and after the administration of the compound are compared so as to obtain the effect of the compound on the Nav1.5 ion channel.
Extracellular fluid: NaCl, 137 mM; KCl, 4 mM; CaCl2), 1.8 mM; MgCl2, 1 mM; HEPES, 10; glucose, 10 mM; pH 7.4 (NaOH titration).
Intracellular fluid: aspartic acid, 140 mM; MgCl2, 2 mM; EGTA, 11 mM; HEPES, 10 mM; pH 7.2 (CsOH titration).
The test compound was dissolved in dimethyl sulfoxide (DMSO) at a stock concentration of 9 mM. The stock solution of the test compound was dissolved in the extracellular fluid on the day of the test and formulated into the required concentration.
1) The compound was formulated into solutions with specified concentrations. The solutions were added to the pipelines respectively in order from high to low concentration, and the pipelines were marked.
2) The cell was transferred to the perfusion tank, and perfused with the extracellular fluid. The intracellular fluid was stored in small batches in a −80° C. refrigerator, and melted on the day of the experiment. The electrode was pulled with PC-10 (Narishige, Japan). Recording was carried out with the whole-cell patch clamp, and the noise was filtered at one-fifth of the sampling frequency.
3) All compounds were perfused with a perfusion system that uses its own gravity. Each concentration was tested in at least two cells. After the current stabilized (or after 5 minutes), the blocking effect of the compound was calculated by comparing the changes in the current before and after the administration of the compound.
The cell was clamped at −80 mV. The cell was depolarized to Vhalf with a square wave lasting 8 milliseconds, hyperpolarized to −120 mV with a square wave lasting 20 milliseconds, and depolarized to −10 mV with a square wave lasting 20 milliseconds to obtain the Nav1.5 current. This procedure was repeated every 15 seconds. The maximum current caused by the −10 mV square wave was measured. After the current became stable, the test compound was perfused. After the response became stable, the blocking intensity was calculated.
The data was stored in the computer system for analysis. Data collection and analysis were carried out by pCLAMP 10 (Molecular Devices, Union City, CA). Stable current means that the absolute average value of the peak current of four consecutive scans exceeds 200 pA and the CV value is less than 10%, or the average value of the peak current of four consecutive scans is between 200 pA and 50 pA and the CV value is less than 30%. The average value of the last four current peaks after the current stabilized was used to calculate the effect of the compound at the concentration.
Background: In patch-clamp work, channel activity is measured electrically.

Chain of estrogen receptor ERα Y537S mutant-type (P03372 296-554 Y537S): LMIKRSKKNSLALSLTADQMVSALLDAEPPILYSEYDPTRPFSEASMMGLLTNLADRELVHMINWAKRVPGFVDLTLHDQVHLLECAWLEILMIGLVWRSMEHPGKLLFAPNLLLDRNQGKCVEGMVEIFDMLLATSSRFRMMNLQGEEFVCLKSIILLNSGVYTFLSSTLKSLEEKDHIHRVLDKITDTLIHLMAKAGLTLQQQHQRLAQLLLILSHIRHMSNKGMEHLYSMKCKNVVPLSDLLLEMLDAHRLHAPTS
Chain of Nav1.5 ion channel (Q14524 whole entry): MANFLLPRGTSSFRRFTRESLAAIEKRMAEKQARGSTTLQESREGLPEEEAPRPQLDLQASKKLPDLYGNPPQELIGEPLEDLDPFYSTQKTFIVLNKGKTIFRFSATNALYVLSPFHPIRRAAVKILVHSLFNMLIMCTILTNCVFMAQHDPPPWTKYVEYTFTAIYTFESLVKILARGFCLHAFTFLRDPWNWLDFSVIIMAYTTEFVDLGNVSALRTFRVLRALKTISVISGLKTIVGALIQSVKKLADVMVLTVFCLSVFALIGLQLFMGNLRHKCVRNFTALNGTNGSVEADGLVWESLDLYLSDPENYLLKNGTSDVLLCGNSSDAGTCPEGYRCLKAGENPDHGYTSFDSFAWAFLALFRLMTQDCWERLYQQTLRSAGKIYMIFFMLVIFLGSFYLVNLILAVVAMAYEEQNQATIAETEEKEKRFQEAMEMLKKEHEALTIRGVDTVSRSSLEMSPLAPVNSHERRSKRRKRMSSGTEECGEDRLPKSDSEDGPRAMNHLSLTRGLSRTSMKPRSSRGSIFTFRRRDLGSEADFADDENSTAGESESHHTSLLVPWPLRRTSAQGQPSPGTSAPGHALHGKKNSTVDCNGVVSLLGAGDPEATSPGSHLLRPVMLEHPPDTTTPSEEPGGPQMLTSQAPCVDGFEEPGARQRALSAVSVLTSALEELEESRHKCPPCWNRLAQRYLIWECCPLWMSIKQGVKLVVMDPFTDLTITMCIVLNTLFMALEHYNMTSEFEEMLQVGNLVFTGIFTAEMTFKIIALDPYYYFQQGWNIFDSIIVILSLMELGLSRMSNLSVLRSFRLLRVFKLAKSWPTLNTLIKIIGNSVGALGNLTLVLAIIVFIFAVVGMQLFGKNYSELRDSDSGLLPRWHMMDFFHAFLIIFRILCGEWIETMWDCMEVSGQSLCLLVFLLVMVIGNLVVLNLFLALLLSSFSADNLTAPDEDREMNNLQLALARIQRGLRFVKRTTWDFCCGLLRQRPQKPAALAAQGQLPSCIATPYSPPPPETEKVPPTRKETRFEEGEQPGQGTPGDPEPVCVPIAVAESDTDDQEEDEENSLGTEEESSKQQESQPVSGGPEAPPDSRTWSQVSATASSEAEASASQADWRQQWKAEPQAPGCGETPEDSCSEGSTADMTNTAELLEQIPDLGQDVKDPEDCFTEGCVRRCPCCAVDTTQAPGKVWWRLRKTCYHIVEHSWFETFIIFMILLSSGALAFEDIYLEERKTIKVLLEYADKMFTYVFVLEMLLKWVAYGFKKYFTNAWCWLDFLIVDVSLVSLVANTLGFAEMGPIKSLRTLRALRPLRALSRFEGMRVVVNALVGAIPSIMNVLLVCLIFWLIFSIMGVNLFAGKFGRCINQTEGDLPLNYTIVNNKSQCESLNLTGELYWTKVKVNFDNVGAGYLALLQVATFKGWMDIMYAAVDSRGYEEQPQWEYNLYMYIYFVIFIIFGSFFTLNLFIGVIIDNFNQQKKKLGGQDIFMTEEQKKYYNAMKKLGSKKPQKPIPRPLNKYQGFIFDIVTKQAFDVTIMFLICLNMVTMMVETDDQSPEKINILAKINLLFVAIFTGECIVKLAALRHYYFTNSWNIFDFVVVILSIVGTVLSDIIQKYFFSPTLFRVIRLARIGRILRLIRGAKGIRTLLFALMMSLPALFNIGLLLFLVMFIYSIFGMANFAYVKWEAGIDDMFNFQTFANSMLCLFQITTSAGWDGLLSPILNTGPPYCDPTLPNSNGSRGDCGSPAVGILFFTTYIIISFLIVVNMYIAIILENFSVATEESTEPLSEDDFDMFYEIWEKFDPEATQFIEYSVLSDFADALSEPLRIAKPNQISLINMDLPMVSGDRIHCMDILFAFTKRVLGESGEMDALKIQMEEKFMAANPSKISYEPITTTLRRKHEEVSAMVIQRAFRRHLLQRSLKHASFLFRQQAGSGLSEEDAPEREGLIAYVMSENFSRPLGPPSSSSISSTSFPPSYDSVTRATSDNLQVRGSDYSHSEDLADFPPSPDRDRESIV
Chain of estrogen receptor ERα wild-type (P03372 296-554): as the sequence (P03372 296-554 Y537S) above, with S242Y counted along it

With `O=C(/C=C/CN[C@H]1CCCN(c2ccc(/C(=C(/CC(F)(F)F)c3ccccc3)c3ccc4[nH]nc(F)c4c3)cn2)C1)N1CCOCC1` [Example 38, (E)-1-Morpholino-4-(((S)-1-(5-((Z)-4,4,4-trifluoro-1-(3-fluoro-1H-indazol-5-yl)-2-phenylbut-1-en-1-yl)pyridin-2-yl)piperidin-3-yl)amino)but-2-en-1-one], the IC50 in the series with MCF7 D538G was 2 nM; in the series on MCF7 ERαY537S it was 4 nM; with MCF7 cell (MCF7, CellTiter-Glo, read-out: IC50 of the inhibitory effect on the proliferation of MCF7 cell), 0.8 nM; in series [3] it was 5 nM. Moreover, the Emax in the series with MCF7 D538G (read-out: Maximum inhibition) came out at 108%; with MCF7 ERαY537S (read-out: Maximum inhibition), 102%; in the series on MCF7 cell (MCF7 cell proliferation, read-out: Maximum inhibition), 96%. Also, the “Covalent modification effect on the estrogen receptor ERα Y537S mutant-type” value in series [1] turned out to be 96%. Moreover, the “Covalent modification effect on the estrogen receptor ERα wild-type” value in series [2] was determined as 95%.

For the compound `O=C(/C=C/CNCCOc1ccc(/C(=C(/CC(F)(F)F)c2ccccc2)c2ccc3[nH]nc(F)c3c2)cn1)N1CCOCC1` [Example 43, (E)-1-Morpholino-4-((2-((5-((Z)-4,4,4-trifluoro-1-(3-fluoro-1H-indazol-5-yl)-2-phenylbut-1-en-1-yl)pyridin-2-yl)oxy)ethyl)amino)but-2-en-1-one, reference compound], on Nav1.5 ion channel, the IC50 came out at 2700 nM.

The values above are taken from US12325696B2, “Indazole derivative, preparation method therefor, and pharmaceutical application thereof” (JIANGSU HENGRUI MEDICINE CO., LTD., priority 2019, dated 2025).
